Assay [1] has as its target T1, Recombinant human IDO enzyme (IDO1 enzyme) (Homo sapiens, UniProt P14902).
T1 construct: purchased BPS Bioscience, USA
The assay can be described thus: In vitro IDO enzymatic activity assay (kynurenine colour reaction, 492 nm). It is filed as biochemical. The note with it: for IC50: recombinant human IDO enzyme; for inhibition at 0.2 µM: tested compound concentration 200 nM, recombinant human IDO1, read-out: IDO Enzymatic Inhibition Rate (%) (200 nM). On the procedure: The basic principle of the in vitro IDO enzymatic activity detection is to use the IDO enzyme to metabolize the substrate L-tryptophan to produce the product kynurenine in an in vitro enzyme-catalyzed reaction system. The kynurenine is yellow in color reaction with p-dimethylaminobenzaldehyde in glacial acetic acid, and the absorbance value was measured at 492 nm on a microplate reader. The concentration of the product kynurenine in the sample is calculated by comparison to a standard curve of kynurenine with a known concentration.
Recombinant human IDO enzyme (IDO1 enzyme) was purchased from BPS Bioscience, USA.
(3) Control reactions were set up at the same time the detection reaction was carried out. including 0 inhibition positive control with no tested compound added and 0 enzyme negative control with no enzyme added. All tests were run in duplicate.
(4) After the enzymatic reaction was completed, 40 μl of a pre-formulated 30% (w/v) trichloroacetic acid solution was added, and reacted at 65° C. for 20 minutes, followed by centrifugation at 12,000 rpm for 15 minutes.
(5) 100 μl of the supernatant after centrifugation was pipetted and added to a 96-well plate. An equal volume of 2% p-dimethylaminobenzaldehyde in glacial acetic acid was added, well mixed, and allowed to stand at room temperature for 10 minutes.
(6) A microplate reader (ELX800NB) was used to detect the color signal of each well with a detection wavelength of 492 nm.
In addition, the enzymatic inhibition rates were calculated for the tested compounds of different concentration gradients, and then the enzymatic half maximal inhibitory concentration (IC50) was calculated using the IC50 calculator.
According to the above-mentioned method of experiment, the compound of the present disclosure was subjected to an in vitro IDO enzymatic IC50 assay using NLG919 as a positive control compound.

Assay [2] has as its target T2, IFN-γ-induced IDO enzyme in HeLa cells (Homo sapiens, UniProt P14902).
T2 construct: HeLa cells are human cervical cancer cell lines and can up-regulate the expression of endogenous IDO enzymes; endogenous in cells; host or cells: HeLa cells stimulated with human IFN-γ
The assay can be described thus: Detection of IDO inhibitory activity at the cellular level (IFN-γ-induced HeLa cells). It is filed as cell-based. As to conditions: 48 hours; for EC50: human IFN-γ induced, read-out: IDO EC50 (nM) at the Cellular Level (column head: IC50 (nM)); for inhibition at 1 µM: tested compound 1 μM, human IFN-γ 50 ng/ml, read-out: IDO Inhibitory Rate (%) (1 μM). The text has this: In the present disclosure, IFN-γ-induced IDO enzyme expression in HeLa cells were used as a model to detect the IDO enzymatic inhibitory activity of the compound at the cellular level. HeLa cells are human cervical cancer cell lines and can up-regulate the expression of endogenous IDO enzymes under the induction of human IFN-γ. The cell supernatant can be subjected to detection of the enzyme-catalyzed product kynurenine by adding the substrate L-tryptophan to the cell culture solution. […] Recombinant human IFN-γ cytokine purchased from Sangon Biotech, Phenol red-free DMEM for cell culture purchased from Gibco. […] The cells were further cultured for 48 hours and detected. (2) 200 μl of the supernatant from the culture well was pipetted, 40 μl of a pre-formulated 30% (w/v) trichloroacetic acid solution was added, allowed to react at 65° C. for 20 minutes, and then centrifuged at 12,000 rpm for 15 minutes. (3) 100 μl of the supernatant after centrifugation was pipetted and added into a 96-well plate, an equal volume of 2% p-dimethylaminobenzaldehyde in glacial acetic acid was added, and they were mixed well and allowed to stand at room temperature for 10 minutes. (4) A microplate reader (ELX800NB) was used to detect the color signal of each well, and the detection wavelength was 492 nm.

T2 sequence (P14902 whole entry): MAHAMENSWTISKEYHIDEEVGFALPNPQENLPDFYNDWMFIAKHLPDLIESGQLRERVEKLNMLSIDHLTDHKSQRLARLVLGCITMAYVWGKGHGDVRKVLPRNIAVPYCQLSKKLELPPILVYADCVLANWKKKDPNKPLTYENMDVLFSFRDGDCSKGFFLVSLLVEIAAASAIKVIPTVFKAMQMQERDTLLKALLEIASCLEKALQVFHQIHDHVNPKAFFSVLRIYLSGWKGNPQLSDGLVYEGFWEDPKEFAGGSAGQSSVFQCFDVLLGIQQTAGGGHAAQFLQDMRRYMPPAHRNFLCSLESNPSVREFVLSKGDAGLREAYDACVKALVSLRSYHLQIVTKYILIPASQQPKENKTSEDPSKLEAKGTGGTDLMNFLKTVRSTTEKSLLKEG
T1 sequence (P14902 whole entry): as above

Take `O=C(COc1ccccc1)N1CCC(C(O)CC2c3ccccc3-c3cncn32)CC1` (centres unmarked) [Example 7, 1-(4-(1-hydroxy-2-(5H-imidazo[5,1-a]isoindol-5-yl)ethyl)piperidin-1-yl)-2-phenoxyethyl-1-one]: in assay [1], the IC50 turned out to be 55 nM and the inhibition at 0.2 µM came out at 85%. Further, in assay [2], the EC50 is 154 nM and the inhibition at 1 µM amounted to 93%.
Consider `O=C(COc1ccc2[nH]c3ccccc3c2c1)N1CCC(C(O)CC2c3ccccc3-c3cncn32)CC1` (centres unmarked) [Example 17, 2-((9H-carbazol-3-yl)oxy)-1-(4-(1-hydroxy-2-(5H-imidazo[5,1-a]isoindol-5-yl)ethyl)piperidin-1-yl)ethyl-1-one], for which the inhibition at 0.2 µM in assay [1] worked out at 85%. In addition, the inhibition at 1 µM in assay [2] came to 93%.
In the same order, the values of `O=C(COc1ccc2ncccc2c1)N1CCC(C(O)CC2c3ccccc3-c3cncn32)CC1` (centres unmarked) [Example 23, 1-(4-(1-hydroxy-2-(5H-imidazo[5,1-a]isoindol-5-yl)ethyl)piperidin-1-yl)-2-(quinolin-6-yloxy)ethyl-1-one] are 80% and 77%.
Regarding `O=C(COc1ccc2[nH]ccc2c1)N1CCC(C(O)CC2c3ccccc3-c3cncn32)CC1` (centres unmarked) [Example 26, 2-((1H-indol-5-yl)oxy)-1-(4-(1-hydroxy-2-(5H-imidazo[5,1-a]isoindol-5-yl)ethyl)piperidin-1-yl)-ethyl-1-one], the inhibition at 0.2 µM in assay [1] is 89%. Moreover, the inhibition at 1 µM in assay [2] came to 92%.
In the case of `O=C(COc1ncnc2[nH]cnc12)N1CCC(C(O)CC2c3ccccc3-c3cncn32)CC1` (centres unmarked) [Example 33, 2-((7H-purin-6-yl)oxy)-1-(4-(1-hydroxy-2-(5H-imidazo[5,1-a]isoindol-5-yl)ethyl)piperidin-1-yl)ethyl-1-one], the inhibition at 0.2 µM in assay [1] was determined as 70%.
With `O=C(COc1nc2ccccc2o1)N1CCC(C(O)CC2c3ccccc3-c3cncn32)CC1` (centres unmarked) [Example 37, 2-(benzo[d]oxazolin-2-yloxy)-1-(4-(1-hydroxy-2-(5H-imidazo[5,1-a]isoindol-5-yl)ethyl)piperidin-1-yl)ethyl-1-one], the inhibition at 0.2 µM in assay [1] came to 83%. Besides, the inhibition at 1 µM in assay [2] was 97%.
Regarding `O=C(COc1ccc(F)c(Cl)c1)N1CCC(C(O)CC2c3ccccc3-c3cncn32)CC1` (centres unmarked) [Example 39, 2-(3-chloro-4-fluorophenoxy)-1-(4-(1-hydroxy-2-(5H-imidazo[5,1-a]isoindol-5-yl)ethyl)piperidin-1-yl)ethyl-1-one], the inhibition at 0.2 µM in assay [1] is 90%. For the same compound, the inhibition at 1 µM in assay [2] amounted to 98%.
In the case of `O=C(COc1cccc(Cl)c1)N1CCC(C(O)CC2c3ccccc3-c3cncn32)CC1` (centres unmarked) [Example 41, 2-(3-chlorophenoxy)-1-(4-(1-hydroxy-2-(5H-imidazo[5,1-a]isoindol-5-yl)ethyl)piperidin-1-yl)ethyl-1-one], the inhibition at 0.2 µM in assay [1] amounted to 92%. For the same compound, the inhibition at 1 µM in assay [2] was found to be 99%.
In the same order, the values of `O=C(COc1ccc(F)cc1)N1CCC(C(O)CC2c3ccccc3-c3cncn32)CC1` (centres unmarked) [Example 43, 2-(4-fluorophenoxy)-1-(4-(1-hydroxy-2-(5H-imidazo[5,1-a]isoindol-5-yl)ethyl)piperidin-1-yl)ethyl-1-one] are 83% and 89%.
In the same order, the values of `Cc1ccc(OCC(=O)N2CCC(C(O)CC3c4ccccc4-c4cncn43)CC2)cc1C` (centres unmarked) [Example 46, 2-(3,4-dimethylphenoxy)-1-(4-(1-hydroxy-2-(5H-imidazo[5,1-a]isoindol-5-yl)ethyl)piperidin-1-yl)ethyl-1-one] are 83% and 93%.
In the case of `O=C(COc1cccc(C(F)(F)F)c1)N1CCC(C(O)CC2c3ccccc3-c3cncn32)CC1` (centres unmarked) [Example 48, 2-(3-trifluoromethylphenoxy)-1-(4-(1-hydroxy-2-(5H-imidazo[5,1-a]isoindol-5-yl)ethyl)piperidin-1-yl)ethyl-1-one], the inhibition at 0.2 µM in assay [1] worked out at 89%. Besides, in assay [2], the inhibition at 1 µM stood at 99%.
In the same order, the values of `O=C(COC1CCCCC1)N1CCC(C(O)CC2c3ccccc3-c3cncn32)CC1` (centres unmarked) [Example 50, 2-(cyclohexyloxy)-1-(4-(1-hydroxy-2-(5H-imidazo[5,1-a]isoindol-5-yl)ethyl)piperidin-1-yl)ethyl-1-one] are 66% and 69%.
In the same order, the values of `O=C(COc1ccc2oc3ccccc3c2c1)N1CCC(C(O)CC2c3ccccc3-c3cncn32)CC1` (centres unmarked) [Example 57, 2-(dibenzo[b,d]furan-2-yloxy)-1-(4-(1-hydroxy-2-(5H-imidazo[5,1-a]isoindol-5-yl)ethyl)piperidin-1-yl)ethyl-1-one] are 88% and 91%.
Regarding `CN(CC(=O)N1CCC(C(O)CC2c3ccccc3-c3cncn32)CC1)c1ccccc1` (centres unmarked) [Example 59, 1-(4-(1-hydroxy-2-(5H-imidazo[5,1-a]isoindol-5-yl)ethyl)piperidin-1-yl)-2-(methyl(phenyl)amino)ethyl-1-one], in assay [1], the IC50 was found to be 159 nM and the inhibition at 0.2 µM amounted to 83%. Also, in assay [2], the concentration for a half-maximal effect (EC50) was found to be 169 nM and the inhibition at 1 µM worked out at 92%.
As to `CN(CC(=O)N1CCC(C(O)CC2c3ccccc3-c3cncn32)CC1)c1cccc(Cl)c1` (centres unmarked) [Example 63], the inhibition at 0.2 µM in assay [1] came out at 90%. Also, the inhibition at 1 µM in assay [2] turned out to be 99%.
For `CN(CC(=O)N1CCC(C(O)CC2c3ccccc3-c3cncn32)CC1)c1ccc(F)c(Cl)c1` (centres unmarked) [Example 68, 2-((3-chloro-4-fluorophenyl)(methyl)amino)-1-(4-(1-hydroxy-2-(5H-imidazo[5,1-a]isoindol-5-yl)ethyl)piperidin-1-yl)ethyl-1-one], in assay [1], the inhibition at 0.2 µM is 87%. In addition, the inhibition at 1 µM in assay [2] was found to be 98%.
For `CN(CC(=O)N1CCC(C(O)CC2c3ccccc3-c3cncn32)CC1)c1ccc(F)cc1` (centres unmarked) [Example 72, 2-((4-fluorophenyl)(methyl)amino)-1-(4-(1-hydroxy-2-(5H-imidazo[5,1-a]isoindol-5-yl)ethyl)piperidin-1-yl)ethyl-1-one], the inhibition at 0.2 µM in assay [1] came out at 73%. Moreover, in assay [2], the inhibition at 1 µM was 91%.
In the same order, the values of `Cc1ccc(N(C)CC(=O)N2CCC(C(O)CC3c4ccccc4-c4cncn43)CC2)cc1C` (centres unmarked) [Example 77, 2-((3,4-dimethylphenyl)(methyl)amino)-1-(4-(1-hydroxy-2-(5H-imidazo[5,1-a]isoindol-5-yl)ethyl)piperidin-1-yl)ethyl-1-one] are 82% and 95%.
Turning to `CCN(CC(=O)N1CCC(C(O)CC2c3ccccc3-c3cncn32)CC1)c1ccccc1` (centres unmarked) [Example 81, 2-(ethyl(phenyl)amino)-1-(4-(1-hydroxy-2-(5H-imidazo[5,1-a]isoindol-5-yl)ethyl)piperidin-1-yl)ethyl-1-one], the inhibition at 0.2 µM in assay [1] is 85%. Moreover, the inhibition at 1 µM in assay [2] amounted to 94%.
With `O=C(CNc1ccccc1)N1CCC(C(O)CC2c3ccccc3-c3cncn32)CC1` (centres unmarked) [Example 85, 1-(4-(1-hydroxy-2-(5H-imidazo[5,1-a]isoindol-5-yl)ethyl)piperidin-1-yl)-2-(phenylamino)ethyl-1-one], in assay [1], the IC50 worked out at 144 nM and the inhibition at 0.2 µM is 65%. In addition, in assay [2], the 50% effective concentration (EC50) came out at 312 nM and the inhibition at 1 µM worked out at 84%.
As for `CN(CC(=O)N1CCC(C(O)CC2c3ccccc3-c3cncn32)CC1)c1ccccn1` (centres unmarked) [Example 109, 1-(4-(1-hydroxy-2-(5H-imidazo[5,1-a]isoindol-5-yl)ethyl)piperidin-1-yl)-2-(methyl(pyridin-2-yl)amino)ethyl-1-one], the inhibition at 1 µM in assay [2] was 68%.
For `CN(CC(=O)N1CCC(C(O)CC2c3ccccc3-c3cncn32)CC1)c1ccc2c(c1)oc1ccccc12` (centres unmarked) [Example 124, 2-(dibenzo[b,d]furan-3-yl(methyl)amino)-1-(4-(1-hydroxy-2(5H-imidazo[5,1-a]isoindol-5-yl)ethyl)piperidin-1-yl)ethyl-1-one], the inhibition at 1 µM in assay [2] is 79%.

A word on the IC50: it is the concentration needed to halve the response being measured. One may read the EC50 as the concentration at which the effect is half-maximal.

(Values after patent US10604529B2, “Fused imidazole compound having indoleamine 2,3-dioxygenase inhibitory activity” (SHENZHEN CHIPSCREEN BIOSCIENCES CO., LTD., priority 2016, dated 2020).)
